{
  "source": "patent US20240002388A1",
  "about": "“PYRIMIDINONE COMPOUNDS AND USES THEREOF” (HUTCHISON MEDIPHARMA LIMITED, priority 2020, published 2024)",
  "data": [
    {"biological_target": "RIPK1 recombination protein (Homo sapiens (Human), UniProt Q13546)", "sequence (Q13546 other isoform, or with tags, fused parts or gaps)": "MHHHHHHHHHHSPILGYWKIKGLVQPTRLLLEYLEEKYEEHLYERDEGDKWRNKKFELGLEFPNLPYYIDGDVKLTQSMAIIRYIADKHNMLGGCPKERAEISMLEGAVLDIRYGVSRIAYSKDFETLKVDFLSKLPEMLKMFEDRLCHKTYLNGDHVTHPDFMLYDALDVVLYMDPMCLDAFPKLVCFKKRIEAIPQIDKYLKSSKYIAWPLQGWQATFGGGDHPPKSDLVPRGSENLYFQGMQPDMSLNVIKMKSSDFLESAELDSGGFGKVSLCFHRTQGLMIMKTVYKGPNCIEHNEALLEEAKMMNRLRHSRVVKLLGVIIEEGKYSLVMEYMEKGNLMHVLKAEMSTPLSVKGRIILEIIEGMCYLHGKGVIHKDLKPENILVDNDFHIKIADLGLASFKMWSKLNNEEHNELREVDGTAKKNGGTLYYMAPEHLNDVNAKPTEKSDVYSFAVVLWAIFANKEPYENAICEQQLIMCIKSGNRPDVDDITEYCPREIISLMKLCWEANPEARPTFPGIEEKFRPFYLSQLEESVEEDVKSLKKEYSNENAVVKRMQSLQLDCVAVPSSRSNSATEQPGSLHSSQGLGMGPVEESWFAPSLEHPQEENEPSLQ", "experiment": "RIPK1 kinase activity assay (ADP-Glo)", "format": "biochemical", "settings": "RIPK1 kinase activity, ADP-Glo, 10 μM ATP", "description": "RIPK1 recombination protein: synthesized by Shanghai Medicilon Inc. under the commission by Hutchison MediPharma Limited (50 g of cell pellet was resuspended in 250 mL of lysis buffer (50 mM Tris, pH 7.5, 250 mM NaCl, 1 mM DTT, protease inhibitor 1:50), the cells were ultrasonically lysed using a sonicator (the power set to 4) on ice for 3×30 minutes; then centrifugation was carried out at 4° C., at 15,000 g for 30 minutes to clarify the suspension, the soluble pellet was resuspended into 10 mL of glutathione agarose, and incubated at 4° C. for 2 hours; then the beads were loaded into the column and washed with lysis buffer (no protease inhibitors) to baseline, and eluted with 20 mM of reduced glutathione (50 mM Tris, pH 8). The fractions identified by SDS-PAGE as containing the protein of interest were collected (10 mL of total volume), concentrated to about 5 mL and loaded into 300 mL superdex75 column (GE Healthcare) equilibrated with buffer (50 mM Tris, pH 7.5, 150 mM NaCl, 1 mM DTT, 10% glycerol, pH 7.5). RIP1 protein was eluted as a dimer from the superdex75 column. The protein concentration was determined by the Bradford assay using BSA as the standard. The yield was 12.5 mg at 0.63 mg/mL. The protein was aliquoted and frozen at −80° C. for later use.\nADP-Glo Kinase kit can be used to measure ADP level in kinase activity assay so as to distinguish the inhibitory effects of different compounds on RIPK1 kinase activity. The ADP-Glo assay was usually divided into three steps. Firstly, the kinase converted ATP to ADP and phosphorylated the substrate at the same time; secondly, ATP digestion reagent was added to degrade all ATP in the reaction system; finally, a detection reagent was added to reduce ADP to ATP, and energy from ATP was transferred to […] which thus emitting a chemical luminescence that can be detected. Assay procedure can refer to manufacture's technical manual.\n(2) Reagent Preparation: • 1.33× kinase buffer: 5× kinase buffer stock (250 mM of NaCl, 150 mM of MgCl2, 2.5 mg/ml BSA (bovine serum albumin), 0.1% CHAPS (3-[(3-cholamidopropyl)-dimethyl-ammonio]-1-propane sulfonate), and 5 mM of dithiothreitol) was diluted with water to 1.33× kinase buffer; • RIPK1 enzyme solution: the kinase was dissolved in 1.33× kinase buffer to make 40 nM as the final working concentration; • ATP solution: 10 mM ATP stock solution in water was dissolved in 1.33× kinase buffer to make 10 μM as the final working concentration; • 4× compound preparation: the compound was diluted in a 3-fold gradient, and finally 4% DMSO aqueous solution containing different concentrations of the compound was obtained. The final concentrations of the test compound were 10, 3.33, 1.11, 0.37, 0.12, 0.04, 0.014, and 0.005 μM.\nThe assay set up two control groups, one was 100% inhibition group (no enzyme treatment), another was 0% inhibition group (no inhibitor treatment), each control group contained 8 replicate wells. 2.5 μl of serially diluted compound was added to each well of a 384-well plate, with double replicate wells, and 4% DMSO solution was added to control wells. Then 5 μl of RIPK1 enzyme solution was added to each well except 100% inhibition control, 5 ul of buffer was added to 100% inhibition control, after that, 2.5 μl of ATP solution was added to all wells, the plate was vibrated at 1000 rpm for 30 seconds to perform transient centrifuge; finally the 384-well assay plate was put in the shaking incubator, and incubated at room temperature for 3 hours. After the enzymatic reaction was completed, 5 μl of ATP depletion reagent was added to each well, the mixture was centrifuged transiently, then the 384-well assay plate was put in the shaking incubator, and incubated at room temperature for 1 hour. 5 μl of ADP detection reagent was added to each well, and the mixture was centrifuged transiently, and incubated at room temperature for 0.5 hour. […]", "units": {"IC50": "µM"}, "values": [
      {"compound": "CC(C)n1ncc2cnc(C(=O)NC3(c4ccc(-c5cncn(C6COC6)c5=O)cc4)CC3)nc21", "note": "[Compound 41]", "IC50": 0.061},
      {"compound": "CC(C)n1ncc2cnc(C(=O)NC3(c4ccc(-c5cncn(C6CCC6)c5=O)cc4)CC3)nc21", "note": "[Compound 42]", "IC50": 0.056},
      {"compound": "CC[C@H](C)n1cncc(-c2ccc(C3(NC(=O)c4ncc5cnn(C(C)C)c5n4)CC3)cc2)c1=O", "note": "[Compound 43]", "IC50": 0.032},
      {"compound": "CC[C@@H](C)n1cncc(-c2ccc(C3(NC(=O)c4ncc5cnn(C(C)C)c5n4)CC3)cc2)c1=O", "note": "[Compound 44]", "IC50": 0.037},
      {"compound": "CC(C)Cn1cncc(-c2ccc(C3(NC(=O)c4ncc5cnn(C(C)C)c5n4)CC3)cc2)c1=O", "note": "[Compound 45]", "IC50": 0.04},
      {"compound": "Cn1cncc(-c2ccc(C3(NC(=O)c4nc5n(n4)[C@@H](c4ccccc4)CC5)CC3)cc2)c1=O", "note": "[Compound 54, (R)—N-(1-(4-(1-methyl-6-oxo-1,6-dihydropyrimidin-5-yl)phenyl)cyclopropyl)-5-phenyl-6,7-dihydro-5H-pyrrolo[1,2-b][1,2,4]triazole-2-carboxamide]", "IC50": 0.027},
      {"compound": "C[C@H](c1ccccc1)n1cnc(C(=O)NC2(c3ccc(-c4cncn(C)c4=O)cc3)CC2)n1", "note": "[Compound 55, (R)—N-(1-(4-(1-methyl-6-oxo-1,6-dihydropyrimidin-5-yl)phenyl)cyclopropyl)-1-(1-phenylethyl)-1H-1,2,4-triazole-3-carboxamide]", "IC50": 0.023},
      {"compound": "CC(C)n1cncc(-c2ccc(C3(NC(=O)c4ncc5cnn(C6COC6)c5n4)CC3)cc2)c1=O", "note": "[Compound 60]", "IC50": 0.059},
      {"compound": "CC(C)n1cncc(-c2ccc(C3(NC(=O)c4ncc5cnn(CC6CC6)c5n4)CC3)cc2)c1=O", "note": "[Compound 61]", "IC50": 0.014},
      {"compound": "CC(C)n1cncc(-c2ccc(C3(NC(=O)c4ncc5cnn(CC6CCC6)c5n4)CC3)cc2)c1=O", "note": "[Compound 62]", "IC50": 0.021},
      {"compound": "CC(C)n1cncc(-c2ccc(C3(NC(=O)c4ncc5cnn(-c6ccccn6)c5n4)CC3)cc2)c1=O", "note": "[Compound 63]", "IC50": 0.037},
      {"compound": "O=C(NC1(c2ccc(-c3cncn(CC4CC4)c3=O)cc2)CC1)c1ncc2cnn(CC3CC3)c2n1", "note": "[Compound 64]", "IC50": 0.017},
      {"compound": "CC(C)n1ncc2cnc(C(=O)NC3(c4ccc(-c5cncn(C6CC(F)(F)C6)c5=O)cc4)CC3)nc21", "note": "[Compound 65]", "IC50": 0.036},
      {"compound": "CC(C)n1ncc2cnc(C(=O)NC3(c4ccc(-c5cncn(CC6CCC6)c5=O)cc4)CC3)nc21", "note": "[Compound 66]", "IC50": 0.048},
      {"compound": "CC(C)n1ncc2cnc(C(=O)NC3(c4ccc(-c5cncn([C@H]6C[C@@H]6F)c5=O)cc4)CC3)nc21", "note": "[Compound 67]", "IC50": 0.049},
      {"compound": "C[C@H](n1cncc(-c2ccc(C3(NC(=O)c4ncc5cnn(CC6CC6)c5n4)CC3)cc2)c1=O)C(F)(F)F", "note": "[Compound 68]", "IC50": 0.043},
      {"compound": "CC(C)n1ncc2cnc(C(=O)NC3(c4ccc(-c5cncn([C@@H]6C[C@@H]6F)c5=O)cc4)CC3)nc21", "note": "[Compound 69]", "IC50": 0.021},
      {"compound": "C[C@@H](n1cncc(-c2ccc(C3(NC(=O)c4ncc5cnn(CC6CC6)c5n4)CC3)cc2)c1=O)C(F)(F)F", "note": "[Compound 70]", "IC50": 0.051},
      {"compound": "C[C@H](n1cncc(-c2ccc(C3(NC(=O)c4ncc5cnn(CC6CC6)c5n4)CC3)c(F)c2)c1=O)C(F)(F)F", "note": "[Compound 71]", "IC50": 0.11},
      {"compound": "CC(C)n1cncc(-c2ccc(C3(NC(=O)c4ncc5cnn(CC6CC6)c5n4)CC3)c(F)c2)c1=O", "note": "[Compound 72]", "IC50": 0.065},
      {"compound": "CC(C)n1cncc(-c2ccc(C3(NC(=O)c4ncc5cnn(CC6CC6)c5n4)CC3)cc2F)c1=O", "note": "[Compound 73]", "IC50": 0.052},
      {"compound": "CC(C)n1ncc2cnc(C(=O)NC3(c4ccc(-c5cncn(CC6CC6)c5=O)cc4F)CC3)nc21", "note": "[Compound 74]", "IC50": 0.062},
      {"compound": "CC(C)n1ncc2cnc(C(=O)NC3(c4ccc(-c5cncn(CC6CC6)c5=O)c(F)c4)CC3)nc21", "note": "[Compound 75]", "IC50": 0.051},
      {"compound": "C[C@@H](n1cncc(-c2ccc(C3(NC(=O)c4ncc5cnn(CC6CC6)c5n4)CC3)c(F)c2)c1=O)C(F)(F)F", "note": "[Compound 76]", "IC50": 0.051},
      {"compound": "CC(C)n1ncc2cnc(C(=O)NC3(c4ccc(-c5cncn(C6CCOCC6)c5=O)cc4)CC3)nc21", "note": "[Compound 77]", "IC50": 0.042}
    ]}
  ]
}
